Results taken from patent US5578566A, “KGF receptor-derived antagonists of KGF binding” (The United States of America as represented by the …, priority 1993, dated 1996).
Values belong to the molecule of their own block, whether it stands above or below them. No end group written: not given here.

Legend:
Solubility in water = type: physicochemical
KGF receptor (KGFR) = target: T1, KGF receptor (KGFR) (Mus musculus, UniProt P21803); experiment: [125I]-KGF binding to NIH/3T3 cells overexpressing KGFR (competition); settings: NIH3T3/KGFR transfectants; read-out: displacement of 50% of the radiolabeled KGF
T1 construct: expressed in transfected cells; host or cells: NIH/3T3
Experimental: Values shown are the mean of triplicate samples. Results are representative of three separate experiments.
[^125 I]-KGF binding to NIH/3T3 cells overexpressing KGFR was measured as described in Bottaro et al., supra. Competition studies were performed with unlabeled KGF or peptides as indicated.

KGF = target: T2, KGF (Homo sapiens, UniProt P21781); experiment: KGF radioimmunoassay: immunoprecipitation of [125I]-KGF by monoclonal antibody 1G4; type: binding
T2 construct: made in house
T2 sequence (P21781 32-194): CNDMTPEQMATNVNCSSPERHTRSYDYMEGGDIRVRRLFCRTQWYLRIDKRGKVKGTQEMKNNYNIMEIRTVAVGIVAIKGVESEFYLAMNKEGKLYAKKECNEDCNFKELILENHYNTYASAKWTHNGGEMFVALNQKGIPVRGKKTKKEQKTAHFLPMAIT
Experimental: Upper Panel: Immunoprecipitation of [^125 I]-KGF competed by KGF, aFGF, aFGF+heparin (30 μg/ml), peptide 412 (SEQ ID NO 2) or peptide 341. Lower Panel: Immunoprecipitation of [^125 I]-KGF competed by KGF, KGF+heparin (1, 10, or 30 μg/ml, as indicated), peptide 412 (SEQ ID NO 2), or peptide 412 (SEQ ID NO 2)+heparin (1, 10, or 30 μg/ml, as indicated). Values are the mean of duplicate samples, expressed as % maximum [^125 I]-KGF bound. Raw values for background and maximum [^125 I]-KGF bound were approximately 300 and 12,000 cpm/sample, respectively. Results are representative of three separate experiments.
[^125 I]-KGF was immunoprecipitated by 1G4 in the presence of unlabeled KGF, aFGF, or peptides as indicated. Briefly, 1G4 (4 ng/ml final concentration), [^125 I]-KGF (30,000 cpm), and appropriate competitors were mixed in 200 μl of buffer containing 10 mM Tris (pH 7.4), 130 mm NaCl, 1 mM EDTA, 10 mM KC1, 1% NP-40, 0.1% SDS, 0.05% Tween-20, and 0.3% nonfat dry milk, and incubated for 24h at 4° C. Antigen-antibody complex was recovered by adding 30 ul (50% suspension) GammaBind-G Sepharose, incubating an additional 30 min at 4° C. (turning gently), and brief centrifugation (5 min at 14,000×g, 4° C.). Pelleted material was washed three times ([…] each) with cold buffer, and radioactivity was measured by gamma counting.

KGF mitogenic activity = settings: Ron et al.; cited from earlier work

T1 sequence (P21803 22-707 isoform P21803-2 limits assumed): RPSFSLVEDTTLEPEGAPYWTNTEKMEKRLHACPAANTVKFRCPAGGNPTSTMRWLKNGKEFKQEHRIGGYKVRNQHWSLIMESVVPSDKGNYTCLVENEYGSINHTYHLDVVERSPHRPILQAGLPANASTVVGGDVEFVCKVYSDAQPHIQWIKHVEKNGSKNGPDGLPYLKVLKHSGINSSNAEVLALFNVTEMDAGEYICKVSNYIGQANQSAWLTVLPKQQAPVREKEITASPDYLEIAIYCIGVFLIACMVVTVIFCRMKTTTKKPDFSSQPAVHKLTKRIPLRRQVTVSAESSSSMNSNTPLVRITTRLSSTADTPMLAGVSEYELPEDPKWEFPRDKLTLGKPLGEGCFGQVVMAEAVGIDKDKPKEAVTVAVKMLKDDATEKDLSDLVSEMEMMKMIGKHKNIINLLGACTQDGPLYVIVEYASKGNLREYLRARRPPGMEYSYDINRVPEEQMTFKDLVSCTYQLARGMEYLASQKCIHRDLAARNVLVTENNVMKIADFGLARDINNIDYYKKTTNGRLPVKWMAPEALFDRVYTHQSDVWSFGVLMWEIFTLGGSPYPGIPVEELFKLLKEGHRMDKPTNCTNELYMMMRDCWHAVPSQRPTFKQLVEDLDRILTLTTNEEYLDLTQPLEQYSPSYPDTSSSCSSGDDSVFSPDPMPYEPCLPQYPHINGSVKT

Molecule: HSGINSSNAEVLALFNVTEMDAGEY [peptide 412]
water solubility relative to its highest ED50 (Solubility in water): > 3000 fold | IC50 (KGF receptor (KGFR)): ~4 µM | IC50 (KGF; KGF RIA, read-out: concentration required to achieve 50% displacement of [125I]-KGF from 1G4): ~1 µM | Kd (KGF; consistent with data from receptor binding assay and RIA, read-out: Kd for KGF/peptide interactions): 1 to 2 µM

B1: aFGF: Acidic FGF purified from bovine brain, from Upstate Biotechnology (protein, UniProt P03968 16-155, looked up)
Fibroblast growth factor 1: FNLPLGNYKKPKLLYCSNGGYFLRILPDGTVDGTKDRSDQHIQLQLCAESIGEVYIKSTETGQFLAMDTDGLLYGSQTPNEECLFLERLEENHYNTYISKKHAEKHWFVGLKKNGRSKLGPRTHFGQKAILFLPLPVSSD
competition / displacement of [125I]-KGF from 1G4 (KGF; KGF RIA): but not aFGF, even at a 1000-fold higher concentration | competition in the KGF RIA with addition of heparin (KGF; heparin 30 μg/ml): did not cause aFGF to compete

Further lines, with some results ahead:

water solubility relative to its highest ED50 (Solubility in water): approximately 30 fold | solubility (Solubility in water; read-out: limit of solubility in water): 125 µM | IC50 (KGF receptor (KGFR)): ~4 µM
Molecule: HSGINSSNAEVLALFNVTEM [peptide 367]

competition / displacement of [125I]-KGF from 1G4 (KGF; KGF RIA): had no effect
Molecule: heparin [reference compound]
effect on KGF mitogenesis (KGF mitogenic activity): inhibits KGF mitogenesis
